The source of these data is paper PMC12707362, “Targeting Aurora Kinases as Essential Cell‐Cycle Regulators to Deliver Multi‐Stage Antimalarials Against Plasmodium Falciparum” (Angewandte Chemie (International Ed. in English), 2025).

Test [1] concerns PfNF54 female gametes. Nature of the test: P. falciparum Dual Gamete Formation Assay (PfDGFA), female. The format is cell-based, Plasmodium falciparum. The protocol: (§1) The Pf DGFA^[8] was performed by incubating PfNF54 gametocytes with test molecules in 384-well plates for 48 h. Gametogenesis was triggered with the addition of xanthurenic acid and a decrease in temperature. Male and female gametes were identified through fluorescent microscopy and quantified from recorded data using a custom imaging algorithm and then compared to negative (DMSO) and positive (1 µM cabamiquine) controls. Percentage inhibition was calculated, and dose-response curves were constructed in GraphPad Prism v10.5 to calculate IC50 values.

Test [2] deals with synthetic β-hematin (βH) formation. Nature of the test: NP-40 mediated cell-free β-hematin inhibition assay. The format is biochemical. As to conditions: cell-free NP-40, pH 4.8, 5 h. The protocol:
The β-hematin inhibition assay, as described in^[30,31] was used to test the inhibitors for their ability to inhibit β-hematin formation. The test samples were prepared as 20 mM or 10 mM stock solutions in dimethyl sulfoxide (DMSO). Serial dilutions of each inhibitor (100 μL) were performed from column 12 to column 2 of a 96-well plate in triplicate, with column 1 serving as a negative control (0 μM test inhibitor). The samples were tested at a starting in-well concentration of 1000 μM (20 mM stock) or 500 μM (10 mM stock). An “NP-40 substitute” detergent was added (305.5 μM) to each well to mimic the lipophilic environment in which hemozoin formation occurs within the parasite’s digestive vacuole, in helping to mediate the formation of β-hematin. A 25 mM hematin stock was prepared by sonicating heme in DMSO and then suspending 178.8 μL of this in 1 M acetate buffer (20 mL, pH 4.8). Then, 100 μL of the hematin suspension was added to each well to a final well volume of 200 μL. The plate was then incubated for 5 hours at 37 °C. After incubation, 32 μL and 60 μL of 50% pyridine solution and acetone were added, respectively. The pyridine-ferrochrome method by^[31] was used for UV-vis analysis, with the heme-pyridine complex absorbance measured at 405 nm. Data were analysed using Microsoft Excel and GraphPad Prism v10.5 software.

Test [3] concerns PfNF54 male gamete formation (exflagellation). Briefly: P. falciparum Dual Gamete Formation Assay (PfDGFA), male. The class given is cell-based. The following applies: Plasmodium falciparum. The protocol:
as §1

Test [4] has as its target T1, recombinant PfCLK3 kinase domain (Plasmodium falciparum, UniProt Q8IIL5).
T1 sequence (Q8IIL5 317-694): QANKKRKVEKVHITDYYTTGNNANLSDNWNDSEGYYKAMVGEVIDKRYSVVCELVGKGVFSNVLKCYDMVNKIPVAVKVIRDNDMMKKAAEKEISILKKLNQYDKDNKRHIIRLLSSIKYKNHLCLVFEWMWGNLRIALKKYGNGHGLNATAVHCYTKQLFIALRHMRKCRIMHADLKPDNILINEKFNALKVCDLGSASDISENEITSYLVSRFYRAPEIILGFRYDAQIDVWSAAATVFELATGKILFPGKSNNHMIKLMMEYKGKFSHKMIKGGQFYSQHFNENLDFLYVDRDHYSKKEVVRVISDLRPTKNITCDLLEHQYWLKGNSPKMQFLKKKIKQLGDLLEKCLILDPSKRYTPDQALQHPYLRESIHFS
Briefly: ADP-Glo kinase assay, PfCLK3. The format is biochemical. An excerpt:
Full-length PfPKG (PF3D7_1436600)^[19] and PvPI4Kβ (PVX_098050)^[20] recombinant proteins were expressed in E. coli and baculovirus-insect cell expression systems. The kinase domain of PfCLK3 (PF3D7_1114700, Gln317 to Ser694) was expressed in E. coli Rosetta™(DE3)pLysS cells (kind gift from Rafael M. Couñago, CQMED, University of Campinas). Briefly, the N-terminal His-tagged kinases were purified using immobilized metal affinity chromatography, followed by anion exchange chromatography in the case of PfPKG, and size exclusion chromatography. Dose-response kinase inhibition assays were carried out using the ADP-Glo kinase assay kit^[21], with 1 nM PfPKG, 10 μM ATP, 20 μM […]-NH2, 1% (v/v) DMSO and inhibitor in PKG assay buffer (25 mM HEPES pH 7.4, 0.1 mg/mL BSA, 0.01% (v/v) Triton-X 100, 20 mM MgCl2, 2 mM DTT, 10 μM cGMP); or 6 nM PvPI4Kβ, 10 μM ATP, 0.1 mg/ml L-alpha-phosphatidylinositol, 1% (v/v) DMSO and inhibitor in PI4Kβ assay buffer (25 mM HEPES pH 7.4, 100 mM NaCl, 3 mM MgCl2, 1 mM DTT, 0.025 mg/ml BSA, 0.2% (v/v) Triton-X-100); or 15 nM PfCLK3, 10 μM ATP, 20 μM myelin basic protein, 1% (v/v) DMSO and inhibitor in assay buffer (50 mM HEPES pH 7.4, 0.1 mg/mL BSA, 0.01% (v/v) Triton-X 100, 20 mM MgCl2, 2 mM DTT). […] Mean IC50 values were calculated from two independent experiments, each with technical duplicates.
For orientation: ADP-Glo first removes unused ATP, then detects ADP through luciferase.

Test [5] deals with multidrug-resistant PfK1 ABS parasites. Nature of the test: SYBR Green I proliferation assay, PfK1 asexual blood stages. The class given is cell-based. The following applies: Plasmodium falciparum. Here is the method: (B) Antiplasmodial activity of nine anticancer aurora kinase inhibitors (selected based on their PfNF54 ABS activity) against P. falciparum multidrug-resistant ABS parasites (PfDd2 and PfK1). (C) Kinobead competitive inhibition data.
All inhibitors were dissolved in dimethyl sulfoxide (DMSO). Antiplasmodium activity of selected anti-cancer inhibitors was determined on P. falciparum NF54 and Dd2 strains, measuring SYBR Green I fluorescence (485 nm excitation, 538 nm emission) as an indicator of proliferation^[4]. Ring-stage ABS parasites (1% parasitemia, 1% hematocrit) were treated with compounds for 96 h at 37 °C with chloroquine disulphate (0.5 μM) as positive drug control. The activity of the inhibitors was tested against immature (>95% stage II/III) and late-stage (>90% stage IV/V) gametocytes using a luciferase reporter assay on 3D7elo1-pfs16-CBG99 ^[1]. […] Luciferase activity was determined using a non-lysing D-luciferin substrate (1 mM in 0.1 M citrate buffer, pH 5.5, 100 μL) and bioluminescence was detected with a GloMax® - Multi Detection System with Instinct® software.

The mark [6] stands for this setting: Plasmodium falciparum, 48 h, read-out: Pf DGFA IC50 Female.
Setting [7] is: 48 h, read-out: Pf DGFA IC50 Male.
The mark [8] stands for this setting: read-out: IC50 male gamete exflagellation.
Where [9] appears, read: 10 µM ATP, read-out: IC50 PfCLK3.
Where [10] appears, read: multidrug-resistant K1, read-out: Pf K1 ABS IC50.

Read-outs that look alike come from different tables or passages of the source.

What is called IC50 is the concentration that gives 50% inhibition. In the case of `COc1cc(N2CCC(N3CCN(C)CC3)CC2)ccc1Nc1ncc(Cl)c(Nc2ccccc2S(=O)(=O)C(C)C)n1` [TAE684, NVP-TAE684], the IC50 in test [1] (48 h; read-out: Pf DGFA IC50 Female) is 2260 nM; in test [1] (setting [6]) it was 2300 ± 50 nM; in test [2] it was 41400 ± 2300 nM; in test [3] (setting [7]), 120 nM; in test [3] (setting [8]), 116 ± 17 nM; in test [4] (setting [9]) it was greater than 10000 nM.
Consider `O=C(Nc1cccc(Nc2nccc(Nc3cccc(C(F)(F)F)c3)n2)c1)C1CC1` [Aki III, Aurora kinase inhibitor III], for which the IC50 in test [2] was less than 20000 nM; in test [4], greater than 10000 nM; in test [5] (setting [10]) it was 1380 nM.
Consider `COc1cc2c(Nc3ccc(NC(=O)c4ccccc4)cc3)ncnc2cc1OCCCN1CCOCC1` [ZM-39, ZM-447439], for which the IC50 in test [1] (setting [6]) is greater than 10000 nM; in test [2] it was less than 20000 nM; in test [3] (setting [7]), greater than 10000 nM; in test [4] (setting [9]), greater than 10000 nM; in test [5] (setting [10]), 277 nM.
As to `CCN(CCO)CCCOc1ccc2c(Nc3cc(CC(=O)Nc4cccc(F)c4)n[nH]3)ncnc2c1` [AZD-1152, AZD-1152-HQPA], the half-maximal inhibitory concentration (IC50) in test [2] was less than 20000 nM; in test [4] (setting [9]), greater than 10000 nM; in test [5] (setting [10]), 341 nM.
For the compound `O=C(Nc1c[nH]nc1-c1nc2ccc(CN3CCOCC3)cc2[nH]1)NC1CC1` [AT83, AT9283], the 50% inhibitory concentration (IC50) in test [1] (Plasmodium falciparum, 48 h; read-out: Pf DGFA IC50 Female) is greater than 10000 nM; in test [3] (setting [7]), 800 nM; in test [3] (setting [8]) it was 786 ± 16 nM; in test [4] (setting [9]), 100 nM; in test [5] (setting [10]), 102 nM.
For `CCN1CCN(C(=O)Cc2ccc(Nc3ncc(F)c(Nc4ccc(C(=O)Nc5ccccc5Cl)cc4)n3)cc2)CC1` [AAi I, Aurora A Inhibitor I], the IC50 in test [2] was less than 20000 nM; in test [4] (setting [9]) it was 2400 nM; in test [5] (K1, read-out: Pf K1 ABS IC50), 342 nM.
